Legend:
UGT1A1 = molecular target: T1, UGT1A1 (Homo sapiens, UniProt P22309); experiment: Screening for aprepitant glucuronidation, UGT1A1 Supersomes; assay type: in vitro ADME; details: UGT1A1, 5 and 250 µM aprepitant
T1 sequence (P22309 26-533): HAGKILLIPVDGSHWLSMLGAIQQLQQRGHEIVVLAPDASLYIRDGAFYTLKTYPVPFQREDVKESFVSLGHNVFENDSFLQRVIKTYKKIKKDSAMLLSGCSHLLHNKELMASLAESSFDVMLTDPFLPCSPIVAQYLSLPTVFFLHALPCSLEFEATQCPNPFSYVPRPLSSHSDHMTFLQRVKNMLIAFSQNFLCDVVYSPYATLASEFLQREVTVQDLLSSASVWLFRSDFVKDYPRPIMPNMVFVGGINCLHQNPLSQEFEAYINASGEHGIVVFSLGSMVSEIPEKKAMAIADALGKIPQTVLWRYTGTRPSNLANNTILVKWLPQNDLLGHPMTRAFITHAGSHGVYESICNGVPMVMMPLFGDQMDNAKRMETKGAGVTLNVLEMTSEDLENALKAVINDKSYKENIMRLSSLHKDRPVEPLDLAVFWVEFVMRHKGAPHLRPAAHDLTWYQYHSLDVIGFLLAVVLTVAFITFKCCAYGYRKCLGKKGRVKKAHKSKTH

UGT2B15 = molecular target: T2, UGT2B15 (Homo sapiens, UniProt P54855); experiment: Screening for aprepitant glucuronidation, UGT2B15 Supersomes; assay type: in vitro ADME; details: UGT2B15, 5 and 250 µM aprepitant
T2 sequence (P54855 24-530): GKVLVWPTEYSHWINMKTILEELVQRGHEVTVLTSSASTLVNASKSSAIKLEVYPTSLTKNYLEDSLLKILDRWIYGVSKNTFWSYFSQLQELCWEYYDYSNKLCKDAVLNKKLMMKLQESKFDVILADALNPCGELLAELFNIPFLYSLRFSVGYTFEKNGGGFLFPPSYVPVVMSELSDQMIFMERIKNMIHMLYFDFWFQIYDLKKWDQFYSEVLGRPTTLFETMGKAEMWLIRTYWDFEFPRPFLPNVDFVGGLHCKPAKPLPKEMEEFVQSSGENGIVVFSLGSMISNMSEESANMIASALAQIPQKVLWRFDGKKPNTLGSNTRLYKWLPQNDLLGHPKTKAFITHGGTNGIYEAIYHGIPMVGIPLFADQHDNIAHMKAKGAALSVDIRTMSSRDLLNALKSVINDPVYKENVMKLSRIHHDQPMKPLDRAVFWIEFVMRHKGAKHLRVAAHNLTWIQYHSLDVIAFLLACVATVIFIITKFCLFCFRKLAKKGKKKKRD

UGT1A6 = molecular target: T3, UGT1A6 (Homo sapiens, UniProt P19224); experiment: Screening for aprepitant glucuronidation, UGT1A6 Supersomes; assay type: in vitro ADME; details: UGT1A6, 5 and 250 µM aprepitant
T3 sequence (P19224 27-532): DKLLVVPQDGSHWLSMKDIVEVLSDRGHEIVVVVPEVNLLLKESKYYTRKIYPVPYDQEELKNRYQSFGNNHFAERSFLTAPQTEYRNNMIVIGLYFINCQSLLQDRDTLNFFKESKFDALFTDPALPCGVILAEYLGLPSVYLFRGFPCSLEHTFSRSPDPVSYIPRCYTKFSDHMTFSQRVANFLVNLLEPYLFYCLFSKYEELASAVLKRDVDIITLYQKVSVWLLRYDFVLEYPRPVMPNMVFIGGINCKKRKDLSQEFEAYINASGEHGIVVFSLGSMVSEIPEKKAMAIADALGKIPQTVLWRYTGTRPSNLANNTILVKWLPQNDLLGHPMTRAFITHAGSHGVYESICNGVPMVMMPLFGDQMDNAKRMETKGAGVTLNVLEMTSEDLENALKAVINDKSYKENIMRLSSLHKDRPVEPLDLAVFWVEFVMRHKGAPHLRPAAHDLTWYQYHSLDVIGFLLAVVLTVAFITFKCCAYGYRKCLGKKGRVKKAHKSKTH

UGT1A7 = molecular target: T4, UGT1A7 (Homo sapiens, UniProt Q9HAW7); experiment: Inhibition by aprepitant of UGT1A7; assay type: in vitro ADME; details: UGT1A7 enzyme, pH 7.5, probe 4-MU
T4 sequence (Q9HAW7 26-530): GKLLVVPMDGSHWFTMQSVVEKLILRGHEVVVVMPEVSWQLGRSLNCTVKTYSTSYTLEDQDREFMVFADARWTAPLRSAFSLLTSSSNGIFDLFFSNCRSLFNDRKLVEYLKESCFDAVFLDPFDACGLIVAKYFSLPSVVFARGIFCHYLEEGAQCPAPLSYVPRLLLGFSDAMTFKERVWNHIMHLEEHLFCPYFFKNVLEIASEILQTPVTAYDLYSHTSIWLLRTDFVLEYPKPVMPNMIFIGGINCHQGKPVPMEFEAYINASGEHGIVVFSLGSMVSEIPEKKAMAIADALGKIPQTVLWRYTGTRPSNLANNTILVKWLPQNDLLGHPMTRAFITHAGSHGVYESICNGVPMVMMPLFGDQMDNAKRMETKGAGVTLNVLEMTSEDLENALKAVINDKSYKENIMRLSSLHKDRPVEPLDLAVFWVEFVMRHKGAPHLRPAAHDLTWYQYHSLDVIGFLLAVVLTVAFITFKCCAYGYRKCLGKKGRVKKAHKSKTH

[1] = ref Lasseter et al., 2007, Takahashi et al., 2011; cited from earlier work
[2] = system: human liver microsomes (HLM); assay type: in vitro ADME; details: pooled HLM; Km not shown
UGT2B7 = molecular target: T5, UGT2B7 (Homo sapiens, UniProt P16662); experiment: Screening for aprepitant glucuronidation, UGT2B7 Supersomes; assay type: in vitro ADME; details: UGT2B7, 5 and 250 µM aprepitant
T5 sequence (P16662 24-529): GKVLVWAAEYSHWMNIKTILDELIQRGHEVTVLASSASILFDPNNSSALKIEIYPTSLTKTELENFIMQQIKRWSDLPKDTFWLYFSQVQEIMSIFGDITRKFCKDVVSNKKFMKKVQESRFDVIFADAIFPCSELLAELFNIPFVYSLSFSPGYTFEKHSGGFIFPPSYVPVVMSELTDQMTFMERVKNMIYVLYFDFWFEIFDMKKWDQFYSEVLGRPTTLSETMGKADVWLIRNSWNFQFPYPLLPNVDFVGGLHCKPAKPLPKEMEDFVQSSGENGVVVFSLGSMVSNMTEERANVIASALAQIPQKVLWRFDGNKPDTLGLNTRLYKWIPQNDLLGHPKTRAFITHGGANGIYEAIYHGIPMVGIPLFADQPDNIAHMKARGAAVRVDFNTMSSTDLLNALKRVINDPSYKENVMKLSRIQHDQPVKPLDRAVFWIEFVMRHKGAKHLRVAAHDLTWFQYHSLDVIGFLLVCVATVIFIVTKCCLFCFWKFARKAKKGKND

[3] = system: human liver microsomes (HLM); assay type: in vitro ADME; details: microsomes from 44 livers, 30 µM aprepitant
other UGTs = experiment: Inhibition by aprepitant of other UGTs; assay type: in vitro ADME, human; details: 1 µM aprepitant, UGTs other than UGT2B7

- AP-G formation (UGT1A1): not detected
- AP-G formation (UGT2B15): not detected
- AP-G formation (UGT1A6): not detected
- inhibition at 10 µM (UGT1A7): 17%
- AP-G formation (UGT2B7): not detected
- variation of glucuronidation activity between livers [3]: approximately 2 fold
Structure (SMILES): C[C@@H](O[C@H]1OCCN(Cc2n[nH]c(=O)[nH]2)[C@H]1c1ccc(F)cc1)c1cc(C(F)(F)F)cc(C(F)(F)F)c1 [aprepitant, Aprepitant]
- systemic circulation concentration in patients [1]: approximately 5 µM
- shape of velocity curve (kinetics) [2]: biphasic shape
- inhibition of other UGTs (other UGTs): < 10%

Source: PMC4844176 (Xenobiotica; the fate of foreign compounds in biological …, 2015)
